Experiments:
F-actin = assay: FITC-phalloidin staining of F-actin and flow cytometry in resting CD4 T cells; format: cell-based, human
Experimental: Cells were stimulated with HIV-1 or gp120 IIIB (Microbix Biosystems Inc. Toronto, Ontario). F-actin staining using FITC-labeled phalloidin (Sigma, St. Louis, Mo.) was carried out according to the manufacture's recommendation with minor modifications. Briefly, each staining was carried out by using 10^6 cells. Cells were pelleted, fixed and permeabilized with cytoperm/cytofix (BD biosciences, San Diego, Calif.) for 20 min on ice, followed by stained with 5 μl of 0.3 uM FITC-labeled phalloidin for 30 min at 4° C. After wash, cells were resuspended in 1% paraformaldehyde and analyzed on FACSCalibur (BD Biosciences, San Jose, Calif.)

cofilin = assay: Cofilin and phospho-cofilin western blot in resting CD4 T cells; format: cell-based, human
Experimental: For activation of resting CD4 T cells with PHA (3 μg/ml) (Sigma, St. Louis, Mo.) plus IL-2 (100 U/ml) (Roche Applied Science, Indianapolis, Ind.), cells were cultured in the presence of these agents for 1 day.
Briefly, 10^6 of CD4 T cells were lysed in NuPAGE LDS Sample Buffer (Invitrogen, Carlsbad, Calif.) followed by sonication. Samples were heated at 70° C. for 10 minutes before loading, then separated by SDS-PAGE and transferred onto nitrocellulose membranes (Invitrogen, Carlsbad, Calif.). The membranes were washed in TBS for 5 minutes and then blocked for 30 minutes at room temperature with Starting Block blocking buffer (Pierce, Rockford, Ill.). The blots were incubated with either a rabbit anti-cofilin antibody (1:1000 dilution) (Cell Signaling, Danvers, Mass.) or a rabbit anti-phospho-cofilin (ser3) antibody (1:1000 dilution) (Cell Signaling, Danvers, Mass.) diluted in 5% BSA-TBST and rocked at room temperature for 1 hour. The blots were washed three times for 15 minutes each and then incubated with a goat anti-rabbit horseradish peroxidase-conjugated antibodies (KPL, Inc. Gaithersburg, Md.) diluted in 2.5% skim milk-TBST (1:1000) for 1 hour. […] Images were captured with a CCD camera (Fluor Chem 9900 Imaging Systems) (Alpha Innotech, San Leandro, Calif.) and analyzed and processed by NIH-Image Version 163.

HIV-1 = HIV-1 latent infection of resting CD4 T cells, viral replication assay (p24 ELISA) after anti-CD3/CD28 activation; format: cell-based, HIV-1NL4-3; conditions: for HIV replication in resting T cells: 5 minutes before infection
Experimental: Virus stocks of the HIV-1NL4-3 (Adachi et al. J Virol 59(2), 284-91 (1986)) were prepared by transfection of HeLa cells with cloned proviral DNA as described in Wu and Marsh (2001). Supernatant was harvested at 48 hours, and filtered through a 0.45 μm nitrocellulose membrane. Virus titer (TCID50) was measured by infection of a Rev-CEM indicator cell line which was constructed through stable integration of a Rev-dependent GFP expression lentiviral vector into CEM-SS. […] For infection of resting CD4 T cells, viruses were first titrated to determine minimal levels detectable by p24 ELISA in replication assays described below. Unless specified, for most replication assays, 10^3.5 to 10^4.5 TCID50 units of HIV-1 were used to infect 10^6 cells. For infection procedure, CD4 T cells were incubated with the virus for 2 hours, then washed twice with medium to remove unbound virus. Infected cells were resuspended into fresh RPMI 1604 medium supplemented with 10% heat-inactivated fetal bovine serum, penicillin (50 U/ml) and streptomycin (50 μg/ml) at a density of 10^6 per ml and incubated for 5 days without stimulation. Cells were activated at day 5 with anti-CD3/CD28 magnetic beads at 4 beads per cells. For viral replication assay, 10% of infected cells were taken at 1, 3, 5, 6, 7, 8, 9 days post infection. Cells were pelleted and the supernatant was saved for p24 ELISA. Levels of p24 in the supernatant were measured by using Coulter HIV-1 p24 Assay Kit (Beckman Coulter, Inc. Miami, Fla.). Plates were kinetically read using ELx808 automatic microplate reader (Bio-Tek Instruments, Inc. Winooski, Vt.) at 630 nm.
Resting CD4 T cells were treated with pertussis toxin (Sigma, St. Louis, Mo.) at a final concentration of 100 ng/ml for 2 hours, then infected with HIV-1. Following infection, cells were washed 2 to 3 times to remove cell-free virus and the inhibitor. Cells were treated with Jasplakinolide (Molecular Probes, Eugene, Oreg.) for 1 to 2 hours or Latrunculin A (Biomol, Plymouth Meeting, Pa.) for 5 minutes at various concentrations, washed twice with medium, then infected with HIV-1. Following infection, cells were washed twice to remove cell free virus. Cells were treated with 200 nM of Staurosporine (Biomol, Plymouth Meeting, Pa.) for 2 hours, then infected with HIV-1. Following infection, cells were washed twice to remove cell-free virus and the inhibitor.
Resting CD4 T cells were treated with S3 or Q104 for I to 2 hours, then infected with HIV-1. Following infection, cells were washed 2 to 3 times to remove cell-free virus and the peptides.
Effects of Jas on LFA-1 activation also were tested. Jas treated or untreated resting T cells were activated by anti-CD3/CD28 bead and stained with human ICAM-1/Fc chimera and analyzed by flow cytometer. The effects of Jas on IL-2 secretion also were measured. […] Cells were treated with Jas for 2 hours, washed, infected with HIV-1 for 5 days, then activated by anti-CD3/CD28 bead. […] Following infection, cellular DNA was PCR amplified for viral late DNA and β-actin pseudogene. Cells were pre-activated with PHA plus IL-2, then treated and infected as in FIG. 3A. […] CEM-SS cell were treated and infected as in FIG. 3A.

HIV = conditions: Doranz et al. 1999; cited from earlier work
LIMK1 = target: T1, LIMK1 (Homo sapiens, UniProt P53667); assay: In vitro LIMK1 kinase assay with GST-tagged recombinant human cofilin; format: biochemical
T1 construct: purchased Upstate Biotechnologies, Lake Placid, N.Y
Experimental: LIMK1 Kinase assays were performed using purified LIMK1 and GST-tagged recombinant human cofilin (Upstate Biotechnologies, Lake Placid, N.Y.) according to the manufacture's recommendation with minor modifications. Briefly, 18 μg of recombinant cofilin was incubated in 1× Kinase reaction buffer ([…], pH7.0, 200 μM EDTA) in the presence or absence of Staurosporine (200 nM) or the S3, Q104 peptides. LIMK1 was serially diluted in dilution buffer (20 mM MOPS-NaOH pH 7.0, 1 mM EDTA, 0.01% Brij-35, 5% glycerol, 0.1% 2-ME, 1 mg/ml BSA), then added into the reaction along with the ATP buffer (10 mM Magnesium Acetate, 100 μM ATP). The reaction was incubated for 15 minutes at 30° C. with constant agitation. The reaction was stopped by adding 25% (V/V) of 4×LDS sample buffer for SDS-PAGE and heated for 10 minutes at 70° C. Cofilin phosphorylation was analyzed by SDS-PAGE and western blotting using a rabbi anti-phospho-cofilin (ser3) antibody (Cell Signaling, Danvers, Mass.) as described in Example 10.

IL-2 secretion = assay: IL-2 ELISA of cell culture supernatant after T cell activation; format: cell-based, human; conditions: 200 nM, treated, incubated and activated
Experimental: IL-2 release into cell culture supernatant was detected by a human IL-2 ELISA development kit (PeproTech, Rocky Hill, N.J.) according to the manufacture's instruction. Briefly, each well of a plate was coated with 100 μl of capture antibody (1 μg/ml) and incubated overnight at room temperature, then washed and blocked with 300 μl of blocking solution for one hour at room temperature. Samples in plates were incubated for 1 hour at 37° C., then washed and incubated with 100 μl of detection antibody (0.5 μg/ml) for 1 hour at 37° C. Plates were washed and incubated with 100 μl of the avidin-peroxidase conjugate (1:2000 dilution) for 30 minutes at room temperature followed by washing and incubation with 100 μl of Tetramethylbenzidine (TMB) substrate buffer. Plates were kinetically read using ELx808 automatic microplate reader (Bio-Tek Instruments, Inc. Winooski, Vt.) at 630 nm.

[1] = 200 nM added during T cell activation at day 5

T1 sequence (P53667 whole entry, species assumed): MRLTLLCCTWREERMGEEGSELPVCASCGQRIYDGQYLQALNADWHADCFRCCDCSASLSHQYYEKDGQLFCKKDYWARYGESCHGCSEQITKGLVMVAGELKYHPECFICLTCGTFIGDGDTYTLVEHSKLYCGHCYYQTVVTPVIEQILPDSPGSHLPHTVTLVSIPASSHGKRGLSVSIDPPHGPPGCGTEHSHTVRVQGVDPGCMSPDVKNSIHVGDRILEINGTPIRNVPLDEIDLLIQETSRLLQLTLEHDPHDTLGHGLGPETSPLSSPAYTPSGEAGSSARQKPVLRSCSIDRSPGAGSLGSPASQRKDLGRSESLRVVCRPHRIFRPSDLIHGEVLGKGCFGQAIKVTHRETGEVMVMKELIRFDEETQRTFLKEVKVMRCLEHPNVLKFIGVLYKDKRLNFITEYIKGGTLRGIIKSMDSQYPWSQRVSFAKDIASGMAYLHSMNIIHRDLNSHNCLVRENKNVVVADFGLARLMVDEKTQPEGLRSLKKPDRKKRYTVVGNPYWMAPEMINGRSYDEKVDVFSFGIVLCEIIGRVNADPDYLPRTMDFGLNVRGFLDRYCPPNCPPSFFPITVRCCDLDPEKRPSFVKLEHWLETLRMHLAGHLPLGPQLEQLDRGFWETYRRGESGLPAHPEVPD

With SDF-1: the natural ligand for CXCR4 as the compound, how does the F-actin change (F-actin; 50 ng/ml) read?
Its F-actin change is “rapid actin polymerization”.

Which “inhibition of HIV-1 induced cofilin activation” value (cofilin; pretreated, then infected with HIV-1) does the source give for pertussis toxin [P.T] here?
Its value is “Complete inhibition”.

And the “viral replication in resting T cells” value (HIV-1; 100 ng/ml for 2 hours before infection)?
The value was “inhibited viral replication”.

What about the “viral replication in CXCR4 transfected U87-MG cells” value (HIV) of the same compound?
Its value is “did not affect viral replication”.

And the “inhibition of viral induced actin depolymerization” value (F-actin; 100 ng/ml for 2 hours, then HIV-1)?
Its value is “completely inhibited”.

Which results are given for `CN[C@@H]1C[C@H]2O[C@@](C)([C@@H]1OC)n1c3ccccc3c3c4c(c5c6ccccc6n2c5c31)C(=O)NC4` [staurosporine]?
cofilin phosphorylation in resting CD4 T cells (cofilin; 200 nM, no stimulation): gradual dephosphorylation and activation of cofilin; LIMK1 inhibition compared with S3 peptide (LIMK1; 200 nM): much stronger; phosphorylation of cofilin by LIMK1 (LIMK1; 200 nM): directly inhibited; HIV-1 replication (HIV-1; [1]): completely abolished HIV-1 replication; T cell activation (HIV-1; [1]): inhibited T cell activation; HIV replication in resting CD4 T cells (HIV-1; 200 nM briefly before infection): dramatic enhancement; IL-2 secretion (IL-2 secretion): slight inhibition; actin depolymerization (F-actin; 200 nM): actin depolymerization also was observed

For `C/C1=C/C(=O)O[C@@H]2C[C@@H](CC[C@H](C)/C=C\C=C\CC1)O[C@@](O)([C@@H]1CSC(=O)N1)C2` [Lat-A, Latrunculin A], which “HIV replication in resting T cells, treatment before vs after infection” value (HIV-1; 25 nM, 5 minutes) is on record?
The value was “enhancement was seen only in cells pretreated with Lat-A prior to infection”.

What about the “HIV replication in resting T cells” value (HIV-1; 25 nM) of the same compound?
Its value is “Enhanced HIV replication”.

What about the “HIV replication in resting T cells” value (HIV-1; 250 nM) of the same compound?
Its value is “donor-dependent variations from enhancement to inhibition”.

And the “HIV replication in resting T cells” value (HIV-1; 2.5 μM)?
Its value is “inhibited viral replication in all donors”.

What about the actin depolymerization (F-actin; 25 nM, 5 min) of the same compound?
The actin depolymerization was “actin depolymerization to an extent similar to that induced by HIV-1”.

And the actin depolymerization (F-actin; 2.5 μM to 250 nM, 5 min)?
Its actin depolymerization is “dramatic actin depolymerization”.

Which results are given for “S3: Synthetic peptide MASGVAVSDGVIKVFN (SEQ ID NO: 3), N-terminal 16 amino acids of human cofilin”?
cofilin phosphorylation by LIMK1 (LIMK1; peptide): inhibited cofilin phosphorylation; viral replication in resting CD4 T cells (HIV-1; pre-treated 2 hours, then infected): enhanced viral replication

From patent publication US7662547B2, “Compositions and methods for detecting and treating HIV infections” (priority 2006, dated 2010)
